Assay results taken from EP0908457B1, “3-(1,2-benzisothiazol- and isoxazol-5-Y1)-2,4(1H,3H)-pyrimidinedione or thione and 3-(1,2-benzisothiazol- and isoxazol-5-y1)-4(3H)-pyrimidinone or thione herbicidal agents” (BASF AKTIENGESELLSCHAFT, priority 1997, dated 1999).

Experiments:
[1] = tested on: Monochoria vaginalis, Presl.; test: Preemergence weed control under flooded paddy conditions, MOOVA (Monochoria); format: in vivo; conditions: flooded paddy; for herbicidal effect rating, MOOVA: preemergence, rated three to four weeks after treatment; for MOOVA: preemergence weeds, herbicidal effect rating 0-9, three to four weeks after treatment; as to herbicidal effect rating, MOOVA: meaning of each grade not given here
[2] = tested on: Cyperus serotinus, Rottb.; test: Preemergence weed control under flooded paddy conditions, CYPSE (Flatsedge); format: in vivo; conditions: for herbicidal effect rating, CYPSE: preemergence, rated three to four weeks after treatment; for CYPSE: preemergence weeds, herbicidal effect rating 0-9, three to four weeks after treatment; as to herbicidal effect rating, CYPSE: meaning of each grade not given here
[3] = tested on: Cyperus iria; test: Preemergence weed control under flooded paddy conditions, CYPIR (Rice Flatsedge); format: in vivo; conditions: flooded paddy; for herbicidal effect rating, CYPIR: preemergence, rated three to four weeks after treatment; for CYPIR: preemergence weeds, herbicidal effect rating 0-9, three to four weeks after treatment; as to herbicidal effect rating, CYPIR: meaning of each grade not given here
[4] = tested on: Echinochloa oryzoides (Ard.) Fritsch.; test: Preemergence weed control under flooded paddy conditions, ECHORC (Watergrass (Calif.)); format: in vivo; conditions: flooded paddy; for herbicidal effect rating, ECHORC: preemergence, rated three to four weeks after treatment; for ECHORC: preemergence weeds, herbicidal effect rating 0-9, three to four weeks after treatment; as to herbicidal effect rating, ECHORC: meaning of each grade not given here
[5] = tested on: Oryza sativa, (L.) Tebonnet; test: Rice tolerance to post-transplant applications under flooded paddy conditions (Example 187), ORYSAT (Rice, Tebonnet); conditions: for herbicidal effect rating, ORYSAT (rice tolerance) / herbicidal effect rating ORYSAT: rated three to four weeks after treatment; for ORYSAT: herbicidal effect rating 0-9, three to four weeks after treatment; as to herbicidal effect rating ORYSAT: meaning of each grade not given here
[6] = tested on: Sagittaria pygmaea, L.; test: Preemergence weed control under flooded paddy conditions, SAGPY (Arrowhead (Pygmaea)); format: in vivo; conditions: flooded paddy; for herbicidal effect rating, SAGPY: preemergence, rated three to four weeks after treatment; for SAGPY: preemergence weeds, herbicidal effect rating 0-9, three to four weeks after treatment; as to herbicidal effect rating, SAGPY: meaning of each grade not given here

Cc1ccc(OCC(=O)OC(C)(C)C)c(-c2nsc3ccc(-n4c(=O)cc(C(F)(F)F)n(C)c4=O)cc23)c1 [Example 68, tert -Butyl {{2-{5-[3,6-dihydro-3-methyl-2,6-dioxo-4-(trifluoromethyl)-1(2H)-pyrimidinyl]-1,2-benzisothiazol-3-yl}-p-tolyl}oxy}acetate]
herbicidal effect rating, MOOVA ([1]; 0.0313 kg/ha): 9.0
herbicidal effect rating, MOOVA ([1]; 0.0625 kg/ha): 9.0
herbicidal effect rating, MOOVA ([1]; 0.1250 kg/ha): 9.0
herbicidal effect rating, MOOVA ([1]; 0.2500 kg/ha): 9.0
herbicidal effect rating, CYPSE ([2]; 0.0313 kg/ha): 6.0
herbicidal effect rating, CYPSE ([2]; 0.0625 kg/ha): 7.0
herbicidal effect rating, CYPSE ([2]; 0.2500 kg/ha): 7.0
herbicidal effect rating, CYPIR ([3]; 0.0313 kg/ha): 7.0
herbicidal effect rating, CYPIR ([3]; 0.0625 kg/ha): 9.0
herbicidal effect rating, CYPIR ([3]; 0.1250 kg/ha): 9.0
herbicidal effect rating, CYPIR ([3]; 0.2500 kg/ha): 9.0
herbicidal effect rating, ECHORC ([4]; 0.0313 kg/ha): 7.5
herbicidal effect rating, ECHORC ([4]; 0.0625 kg/ha): 9.0
herbicidal effect rating, ECHORC ([4]; 0.1250 kg/ha): 9.0
herbicidal effect rating, ECHORC ([4]; 0.2500 kg/ha): 9.0
herbicidal effect rating, ORYSAT (rice tolerance) ([5]; 0.0313 kg/ha): 0.5
herbicidal effect rating, ORYSAT (rice tolerance) ([5]; 0.0625 kg/ha): 1.0
herbicidal effect rating, ORYSAT (rice tolerance) ([5]; 0.1250 kg/ha): 1.5
herbicidal effect rating, ORYSAT (rice tolerance) ([5]; 0.2500 kg/ha): 1.0
herbicidal effect rating, SAGPY ([6]; 0.0313 kg/ha): 0.0
herbicidal effect rating, SAGPY ([6]; 0.0625 kg/ha): 0.0
herbicidal effect rating, SAGPY ([6]; 0.1250 kg/ha): 2.0
herbicidal effect rating, SAGPY ([6]; 0.2500 kg/ha): 2.0

Cn1c(C(F)(F)F)cc(=O)n(-c2cc3c(CC#N)nsc3cc2F)c1=O [Example 379, 1,2-Benzisothiazole-3-acetonitrile, 5-[3,6-dihydro-3-methyl-2,6-dioxo-4-(trifluoromethyl)-1(2H)-pyrimidinyl]-6-fluoro-]
herbicidal effect rating, MOOVA ([1]; Rate 0.0320 kg/ha): 9.0
herbicidal effect rating, MOOVA ([1]; Rate 0.0620 kg/ha): 9.0
herbicidal effect rating, MOOVA ([1]; Rate 0.1250 kg/ha): 9.0
herbicidal effect rating, MOOVA ([1]; Rate 0.2500 kg/ha): 9.0
herbicidal effect rating, CYPSE ([2]; Rate 0.0320 kg/ha): 2.5
herbicidal effect rating, CYPSE ([2]; Rate 0.0620 kg/ha): 6.5
herbicidal effect rating, CYPSE ([2]; Rate 0.1250 kg/ha): 8.5
herbicidal effect rating, CYPSE ([2]; Rate 0.2500 kg/ha): 8.5
herbicidal effect rating, CYPIR ([3]; Rate 0.0320 kg/ha): 5.5
herbicidal effect rating, CYPIR ([3]; Rate 0.0620 kg/ha): 7.5
herbicidal effect rating, CYPIR ([3]; Rate 0.1250 kg/ha): 9.0
herbicidal effect rating, CYPIR ([3]; Rate 0.2500 kg/ha): 9.0
herbicidal effect rating, ECHORC ([4]; Rate 0.0320 kg/ha): 2.0
herbicidal effect rating, ECHORC ([4]; Rate 0.0620 kg/ha): 5.0
herbicidal effect rating, ECHORC ([4]; Rate 0.1250 kg/ha): 7.5
herbicidal effect rating, ECHORC ([4]; Rate 0.2500 kg/ha): 8.0
herbicidal effect rating ORYSAT ([5]; Rate 0.0320 kg/ha): 7.0
herbicidal effect rating ORYSAT ([5]; Rate 0.0620 kg/ha): 8.5
herbicidal effect rating ORYSAT ([5]; Rate 0.1250 kg/ha): 9.0
herbicidal effect rating ORYSAT ([5]; Rate 0.2500 kg/ha): 9.0
herbicidal effect rating, SAGPY ([6]; Rate 0.0320 kg/ha): 3.5
herbicidal effect rating, SAGPY ([6]; Rate 0.0620 kg/ha): 6.5
herbicidal effect rating, SAGPY ([6]; Rate 0.1250 kg/ha): 9.0
herbicidal effect rating, SAGPY ([6]; Rate 0.2500 kg/ha): 9.0

Cn1c(C(F)(F)F)cc(=O)n(-c2ccc3snc(C(=O)Nc4nc(C(F)(F)F)c(Cl)s4)c3c2)c1=O [Example 439, 1,2-Benzisothiazole-3-carboxamide, N-[5-chloro-4-(trifluoromethyl)thiazol-2-yl]-5-[3,6-dihydro-3-methyl-2,6-dioxo-4-(trifluoromethyl)-1(2H)-pyrimidinyl]-]
MOOVA ([1]; 0.0320 kg/ha): 5.0
MOOVA ([1]; 0.0620 kg/ha): 6.0
MOOVA ([1]; 0.1250 kg/ha): 7.0
MOOVA ([1]; 0.2500 kg/ha): 7.0
CYPSE ([2]; 0.0320 kg/ha): 0.0
CYPSE ([2]; 0.0620 kg/ha): 0.0
CYPSE ([2]; 0.1250 kg/ha): 0.0
CYPSE ([2]; 0.2500 kg/ha): 0.0
CYPIR ([3]; 0.0320 kg/ha): 1.0
CYPIR ([3]; 0.0620 kg/ha): 3.0
CYPIR ([3]; 0.1250 kg/ha): 4.0
CYPIR ([3]; 0.2500 kg/ha): 5.0
ECHORC ([4]; 0.0320 kg/ha): 2.0
ECHORC ([4]; 0.0620 kg/ha): 3.0
ECHORC ([4]; 0.1250 kg/ha): 6.0
ECHORC ([4]; 0.2500 kg/ha): 6.0
ORYSAT ([5]; 0.0320 kg/ha): 0.0
ORYSAT ([5]; 0.0620 kg/ha): 0.0
ORYSAT ([5]; 0.1250 kg/ha): 0.0
ORYSAT ([5]; 0.2500 kg/ha): 0.0
SAGPY ([6]; 0.0320 kg/ha): 0.0
SAGPY ([6]; 0.0620 kg/ha): 0.0
SAGPY ([6]; 0.1250 kg/ha): 0.0
SAGPY ([6]; 0.2500 kg/ha): 3.0
